These results are taken from patent US8835476B2, “Synthesis of novel antimicrobials” (priority 2005, dated 2014).

Structures are written as SMILES. A value given as a limit tells only on which side of the number the result lay.

The assay addresses T1, recombinant E. coli LpxA (Escherichia coli, UniProt P0A722).
T1 construct: 6xHis (C); made in house; host or cells: E. coli BL21 (pET23b)
In words: LpxA assay: acyl-UDP-GlcNAc formation from UDP-[3H]GlcNAc, TLC. The format is biochemical. The conditions noted are these: 5 mM compound; FIG. 8. An excerpt:
The lpxA gene was amplified from an E. coli genomic library and inserted into a pET23b vector using standard recombinant DNA methodology. The 5′ oligonucleotide for amplification of the LpxA open reading frame was 5′-[…]-3′ (SEQ ID NO. 1) and contains a BamHI restriction enzyme site upstream of the LpxA ATG start codon and the 3′ oligonucleotide was 5′-[…]-3′ (SEQ ID NO. 2) and contains a XhoI restriction enzyme site downstream of the final codon of the LpxA open reading frame. Primers were custom synthesized. The primers were designed such that digestion of the amplification product would result in addition of a C-terminal 6×-His tag in frame with the LpxA open reading frame. Specifically, E. coli genomic DNA was isolated and an amplification reaction was carried out as follows: 33 μl water, 5 μl 10× reaction buffer, 1.5 μl of 50 mM magnesium sulfate, 3 μl of 10 mM dNTPs, 3 μl of a 50 μM solution of the 5′ LpxA primer, 3 μl of a 50 μM solution of the 3′ LpxA primer, 0.5 μl of E. coli genomic DNA solution, and 1 μl of polymerase. The reaction conditions were as follows: 94° C. for 2 minutes; followed by 30 cycles of 94° C. for 30 seconds, 50° C. for 30 seconds, 68° C. for 1.5 minutes, followed by an extension at 68° C. for 7 minutes. The resulting LpxA product was separated from other DNA on a 0.8% agarose gel and isolated from the gel. The LpxA open reading frame was cloned into a topoisomerase I-activated vector and transformed into E. coli. […] The newly synthesized plasmid containing the BamHI- and XhoI-flanked LpxA open reading frame and plasmid pET23a were digested with BamHI and XhoI at 37° C. for 2 hours, DNA was separated by agarose gel electrophoresis, isolated from the gel, and ligated. Ligation reactions were transformed into chemically competent E. coli and plasmid DNA was isolated. Restriction mapping was performed to determine which plasmids contained the LpxA open reading frame. To remove the T7 epitope coding sequence from the 5′end of the LpxA open reading frame, the pET23a plasmid containing the LpxA open reading frame was digested with the restriction enzymes BamHI and XhoI and a pET23b plasmid was digested with BglII and XhoI, DNA was separated by agarose gel electrophoresis, isolated from the gel, and ligated. Ligation reactions were transformed into chemically competent E. coli and plasmid DNA was isolated. Restriction mapping was performed to assess plasmids containing the LpxA open reading frame.
A 5 ml culture of E. Coli BL21 cells expressing the LpxA-6×His plasmid was grown overnight at 37° C. in LB medium containing 50 μg/ml ampicillin and 34 μg/ml chloramphenicol, then subcultured into 500 ml of the same medium and grown at 37° C. until A600=0.6. LpxA expression was induced by addition of 0.5 mM IPTG for three hours. The cells were centrifuged at 7 000×g for 10 minutes at 4° C. and lysed using a mild, nonionic detergent. The soluble fraction containing LpxA was added to 1 ml of nickel affinity resin in a 15 ml Falcon tube; the resin was washed extensively with extraction/wash buffer (50 mM Na-phosphate (pH 7.0) and 300 mM NaCl) prior to use. This mixture was incubated on a rotating platform at low speed for 20 minutes at room temperature. The resin was centrifuged at 1000 rpm in a bench top centrifuge for 2 min, washed twice (10 min each) with 10 ml of extraction/wash buffer, resuspended in 10 ml of extraction/wash buffer, and transferred to a 10 ml polypropylene disposable protein purification column. The column was eluted with 5 ml of 50 mM Na-phosphate (pH 7.0) containing 300 mM NaCl and 150 mM imidazole, collected in 1 ml fractions. The eluate was analysed by SDS-PAGE and was visualised using a protein stain (FIG. 7 inset).
Recombinant Vibrio harveyi acyl carrier protein was prepared from a GST fusion protein as described previously (Flaman et al., 2001). […]

T1 sequence (P0A722 whole entry): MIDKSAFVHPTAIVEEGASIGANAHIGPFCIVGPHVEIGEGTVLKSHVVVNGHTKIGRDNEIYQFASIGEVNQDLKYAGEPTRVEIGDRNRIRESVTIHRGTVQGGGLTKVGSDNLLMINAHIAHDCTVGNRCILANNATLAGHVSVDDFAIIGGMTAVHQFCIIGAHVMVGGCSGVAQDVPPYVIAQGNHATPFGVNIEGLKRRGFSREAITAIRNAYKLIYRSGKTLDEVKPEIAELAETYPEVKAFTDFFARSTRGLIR

As a reminder, the inhibition is the percentage by which the read-out fell short of the control. For `O=C(O)c1cc(-c2nnn[nH]2)c(-c2cccc3ccccc23)s1` [DNM-121H, 5-(Naphthalen-1-yl)-4-(1H-tetrazol-5-yl)thiophene-2-carboxylic acid], the inhibition at 5000 µM is above 70%.

`O=C(O)c1ccc(-c2cc(-c3nnn[nH]3)c(-c3ccc(C(=O)O)cc3)s2)cc1` [DNM-131E, 5-(2,5-Bis(4-carboxyphenyl)thiophen-3-yl)-1H-tetrazole]: the inhibition at 5000 µM is above 80%.

With `COc1ccc(-c2sc(C(=O)O)cc2-c2nnn(C)n2)cc1` [DNM-123E, 5-(4-Methoxyphenyl)-4-(2-methyl-2H-tetrazol-5-yl)thiophene-2-carboxylic acid], the inhibition at 5000 µM is above 70%.

Regarding `Cn1nnnc1-c1cc(C(=O)O)sc1-c1ccc(-c2ccccc2)cc1` [DNM-122G, 5-(4-biphenylyl)-4-(1-methyl-1H-tetrazol-5-yl)thiophene-2-carboxylic acid], the inhibition at 5000 µM is above 80%.

For `Oc1cccc(-c2cc(-c3nnn[nH]3)c(-c3cccc(O)c3)s2)c1` [DNM-131A, 5-(2,5-Bis(3-hydroxyphenyl)thiophen-3-yl)-1H-tetrazole], the inhibition at 5000 µM was above 80%.

For the molecule `Cn1nnc(-c2cc(-c3cccc(O)c3)sc2-c2cccc(O)c2)n1` [DNM-132A, 5-(2,5-Bis(3-hydroxyphenyl)thiophen-3-yl)-2-methyl-2H-tetrazole], the inhibition at 5000 µM is above 80%.

Take `NC(=O)c1ccc(-c2cc(-c3nnn[nH]3)c(-c3ccc(C(N)=O)cc3)s2)cc1` [DNM-131F, 5-(2,5-Bis(4-carbamoylphenyl)thiophen-3-yl)-1H-tetrazole]: the inhibition at 5000 µM is above 80%.

For the molecule `CCOC(=O)c1ccc(-c2cc(-c3nnn[nH]3)c(-c3ccc(C(=O)OCC)cc3)s2)cc1` [DNM-131J, 5-(2,5-Bis(4-(ethoxylcarbonyl)phenyl)thiophen-3-yl)-1H-tetrazole], the inhibition at 5000 µM was above 80%.

Regarding `COc1cccc(-c2sc(C(=O)O)cc2-c2nnnn2C)c1` [DNM-122D, 5-(3-Methoxyphenyl)-4-(1-methyl-1H-tetrazol-5-yl)thiophene-2-carboxylic acid], the inhibition at 5000 µM is above 70%.

On to `Cn1nnnc1-c1cc(-c2ccc(O)cc2)sc1-c1ccc(O)cc1` [DNM-133C, 5-(2,5-Bis(4-hydroxyphenyl)thiophen-3-yl)-1-methyl-1H-tetrazole], for which the inhibition at 5000 µM is above 80%.

Take `COc1ccccc1-c1sc(C(=O)O)cc1-c1nnn(C)n1` [DNM-123F, 5-(2-Methoxyphenyl)-4-(2-Methyl-2H-tetrazol-5-yl)thiophene-2-carboxylic acid]: the inhibition at 5000 µM is above 80%.

`Cn1nnc(-c2cc(C(=O)O)sc2-c2cccc3ccccc23)n1` [DNM-123H, 5-(Naphthalen-1-yl)-4-(2-methyl-2H-tetrazol-5-yl)thiophene-2-carboxylic acid]: the inhibition at 5000 µM is above 80%.

For `Cn1nnc(-c2cc(-c3ccc(O)cc3)sc2-c2ccc(O)cc2)n1` [DNM-132C, 5-(2,5-Bis(4-hydroxyphenyl)thiophen-3-yl)-2-methyl-2H-tetrazole], the inhibition at 5000 µM is above 80%.

Regarding `Cn1nnnc1-c1cc(-c2ccc(C(=O)O)cc2)sc1-c1ccc(C(=O)O)cc1` [DNM-133E, 5-(2,5-Bis(4-carboxyphenyl)thiophen-3-yl)-1-methyl-1H-tetrazole], the inhibition at 5000 µM was above 70%.

As to `Cn1nnc(-c2cc(C(=O)O)sc2-c2ccc(-c3ccccc3)cc2)n1` [DNM-123G, 5-(4-biphenylyl)-4-(2-methyl-2H-tetrazol-5-yl)thiophene-2-carboxylic acid], the inhibition at 5000 µM is above 80%.

As for `Cn1nnnc1-c1cc(C(=O)O)sc1-c1cccc2ccccc12` [DNM-122H, 5-(Naphthalen-1-yl)-4-(1-methyl-1H-tetrazol-5-yl)thiophene-2-carboxylic acid], the inhibition at 5000 µM was above 80%.

On to `CCOC(=O)c1cc(-c2nnn[nH]2)c(-c2ccccn2)s1` [DNM-124I, Ethyl 5-(pyridin-2-yl)-4-(1H-tetrazol-5-yl)thiophene-2-carboxylate], for which the inhibition at 5000 µM is above 80%.

Regarding `NC(=O)c1cccc(-c2cc(-c3nnn[nH]3)c(-c3cccc(C(N)=O)c3)s2)c1` [DNM-131H, 5-(2,5-Bis(3-carbamoylphenyl)thiophen-3-yl)-1H-tetrazole], the inhibition at 5000 µM is above 70%.

On to `COc1cccc(-c2sc(C(=O)O)cc2-c2nnn(C)n2)c1` [DNM-123D, 5-(3-Methoxyphenyl)-4-(2-methyl-2H-tetrazol-5-yl)thiophene-2-carboxylic acid], for which the inhibition at 5000 µM was above 80%.

`Cn1nnnc1-c1cc(-c2cccc(O)c2)sc1-c1cccc(O)c1` [DNM-133A, 5-(2,5-Bis(3-hydroxyphenyl)thiophen-3-yl)-1-methyl-1H-tetrazole]: the inhibition at 5000 µM is above 80%.

In the case of `COC(=O)c1ccccc1-c1cc(-c2nnn[nH]2)c(-c2ccccc2C(=O)OC)s1` [DNM-131K, 5-(2,5-Bis(2-(methoxylcarbonyl)phenyl)thiophen-3-yl)-1H-tetrazole], the inhibition at 5000 µM was above 70%.

Take `CCOC(=O)c1cc(-c2nnn[nH]2)c(-c2cccc(F)c2)s1` [DNM-124A, Ethyl 5-(3-fluorophenyl)-4-(1H-tetrazol-5-yl)thiophene-2-carboxylate]: the inhibition at 5000 µM is above 80%.

Turning to `Oc1ccc(-c2cc(-c3nnn[nH]3)c(-c3ccc(O)cc3)s2)cc1` [DNM-131C, 5-(2,5-Bis(4-hydroxyphenyl)thiophen-3-yl)-1H-tetrazole], the inhibition at 5000 µM was above 80%.

`Cn1nnc(-c2cc(-c3cccc(C(=O)O)c3)sc2-c2cccc(C(=O)O)c2)n1` [DNM-132G, 5-(2,5-Bis(3-carboxyphenyl)thiophen-3-yl)-2-methyl-2H-tetrazole]: the inhibition at 5000 µM is above 80%.

Take `Cn1nnc(-c2cc(C(=O)O)sc2-c2cccc(F)c2)n1` [DNM-123A, 5-(3-Fluorophenyl)-4-(2-methyl-2H-tetrazol-5-yl)thiophene-2-carboxylic acid]: the inhibition at 5000 µM was above 70%.

Consider `Cn1nnc(-c2cc(C(=O)O)sc2-c2ccccn2)n1` [DNM-123I, 5-(Pyridin-2-yl)-4-(2-methyl-2H-tetrazol-5-yl)thiophene-2-carboxylic acid], for which the inhibition at 5000 µM was above 70%.

For `c1ccc(Cc2cc(-c3nnn[nH]3)c(Cc3ccccc3)s2)cc1` [DNM-131O, 5-(2,5-Dibenzylthiophen-3-yl)-1H-tetrazole], the inhibition at 5000 µM is above 80%.
